Measurements: the NIST ThermoML archive (doi:10.1016/j.fluid.2018.07.015)

Experiment: xn = mol fraction of the nth substance listed
Settings: 101 kPa, Liquid, Vibrating tube method

C=O [methanal] + O
mass density [kg/m3]
Settings	x1 = 0.0545	x1 = 0.05456	x1 = 0.09849	x1 = 0.1544	x1 = 0.2019	x1 = 0.2573
291.15 K	–	1025.9	1045.9	1070.2	1091.8	1112.8
298.15 K	1024.6	–	1044.7	1069.9	1089.4	1111.3
313.15 K	1019.6	–	1039.7	1066.9	1086.8	1109.9
